# Experimental data from patent US6740637B1, “Chlorophyll and bacteriochlorophyll derivatives, their preparation and pharmaceutical compositions comprising them” (priority 1998, dated 2004).
# Experiments:
# S. Aureus = type: cell-based, Staphylococcus Aureus
# Method: (§1) 1. Preincubation: Bacteria or viruses were preincubated in the absence (untreated control) or presence of increasing concentration of photosensitizer for 1-2 h at room temperature or 37° C. in the dark.
# (§2) 2. Illumination: One set of untreated control and one set of sensitizer treated samples were exposed to light for 5-10 min. An identical group was kept in the dark (dark control).
# (§3) 3. Viability: samples of the controls and experimental groups were subjected for quantitation of survival and viability was calculated as per cent of untreated control.
# (§4) The light source for illumination was a 250W halogen lamp. The light was focused on a glass support and filtered to eliminate light below 630 nm. The light intensity at the target level was 1500 μEinstein/cm^2. Illumination for Bchl-Ser against S. aureus was performed as described Example 17 herein.
# (§5) Stocks of bacteria (S. aureus, B. subtilis, E. coli) were preserved on solid LB agar slants at 4° C. Two hours prior to the experiment, bacteria were transferred to liquid LB media and grown at 37° C. with continuous shaking. P. Acnes (ATCC-CR 6919) bacteria were grown on agar 1053 reinforced clostridial medium (Oxoid CM 149 ) and incubated at 37° C. […]
# (§6) Aliquots (20 or 30 μl) of bacterial suspensions were plated on LB agar plates for 24 h at 37° C. […] Colonies were counted and per cent viability was calculated from untreated control. […]
# [1] = tested on: Propionibacterium Acnes (under anaerobic conditions); type: cell-based
# Method: as §1, §2, §3, §4
# (§7) Stocks of bacteria (S. aureus, B. subtilis, E. coli) were preserved on solid LB agar slants at 4° C. Two hours prior to the experiment, bacteria were transferred to liquid LB media and grown at 37° C. with continuous shaking. P. Acnes (ATCC-CR 6919) bacteria were grown on agar 1053 reinforced clostridial medium (Oxoid CM 149 ) and incubated at 37° C. Culturing was performed in transparent culture jars made anaerobic with a gas generator envelop containing palladium catalyst, (Gas pack Plus Anaerobic system envelopes with Palladium catalyst, Beckton Dickenson Cockesyville Md. 21030 USA) (anaerobic culture) or in the open air (aerobic culture) The bacteria were incubated for 3-4 days before the experiments were carried out.
# (§8) Aliquots (20 or 30 μl) of bacterial suspensions were plated on LB agar plates for 24 h at 37° C. ((S. aureus, B. subtilis, E. coli)) or on agar 1053 reinforced clostridial medium (P.acnes). Colonies were counted and per cent viability was calculated from untreated control.
# (§9) P. Acnes bacteria at an optical density of A650 nm=0.014 were diluted in PBS to 1:10^−3 and divided into test tubes. Samples of 200 μl were either non treated or incubated with increasing concentration of Chl-Ser. Samples kept in dark were rapped with aluminum foil. All the tubes were placed in the anaerobic jar and incubated for 2 h at 37° C. The anaerobic chamber was placed on the glass support of the light source and samples were illuminated for 5 min. Test tubes with bacteria and sensitizers for the aerobic experiments were left in culture incubator for 2 h and exposed to light for 5 min in the open air. Samples of 20 μl from the anaerobic and aerobic experiments were taken out and spread onto agar plates and culture under anaerobic conditions. After 4 days of anaerobic incubation at 37° C. the colonies formed were counted and per cent viable cells calculated from control. Survival curves were determined based on 6-7 experiments. PDT experiments performed on S. Aureus with Bchl-Ser were conducted as described in Example 17 herein.
# [2] = tested on: Propionibacterium Acnes (under aerobic conditions); type: cell-based
# Method: as §1, §2, §3, §4, §7, §8, §9
# E.Coli = assay: PDT of bacteria with Chl-Ser, colony counting; type: cell-based, Escherichia Coli
# Method: as §1, §2, §3, §4, §5, §6
# B. Subtilis = type: cell-based, Bacilus Subtilis
# Method: as §1, §2, §3, §4, §5, §6
# [3] = tested on: Herpes simplex virus-1 (HSV-1) (in free suspension); assay: PDT of HSV-1 in suspension, plaque assay; type: cell-based, Herpes simplex virus type 1
# Method: For viral infection Vero cells (2×10^4/well) were cultured at 37° C. for 2 days in 24 well microplates. The culture medium was replaced with fresh medium containing 2% FBS and the cells infected with HSV-1 (200 μl) at multiplicity of infection (MOI) of 1-3. The cells were further incubated at 37° C. for 3 days. The medium was collected and centrifuged for 5 min in a clinical centrifuge to remove cells and cell debris. The concentration of viral particle was determined as described below and the suspension was aliquoted and kept at −80° C. until used.
# Vero cells were inoculated with 10 fold dilutions of HSV-1 and cultured for 2 h at 37° C. The medium was then replaced with fresh DMEM containing 2% FBS and 0.7% methylcellulose and the cells were further incubated for 3 days. The overlayer was then decanted and the cells fixed and stained with crystal violet. Virus induced plaques were manually counted and plaque forming units (PFU/ml) were calculated.
# HSV-1 suspended in culture medium to a concentration of 2×10^6 PFU/ml was dispensed (0.5 ml/well) into 24 well microplates and incubated in the dark for 1 h at 37° C. in the absence or presence of the indicated Chl-Ser concentrations. The experimental groups were then exposed to light for 10 min. The appropriate controls described above were included in each experiment. Viral survival was quantitated as described above.
smiles,measurement,setting,value
"C=Cc1c(C)c2cc3nc(c4c5[n-]c(cc6nc(cc1[n-]2)C(C)=C6CC)c(C)c5C(=O)[C@@H]4C(=O)OC)[C@@H](CCC(=O)OC[C@H](N)C(=O)OC)[C@@H]3C.[Mg+2] [Chla-L-Ser-OMe, L-seryl Methyl Ester Chlorophyllidea]",effect in dark,S. Aureus,neither light alone nor Chl-Ser in dark showed any effect
same,colony counts with sensitizer alone in dark,[1],not different from those of untreated samples
same,LD50,"[1]; anaerobic conditions, light 5 min",30 nM
same,phototoxicity in the presence of light,"[1]; concentration range of 0.1 to 1×10^−7M, anaerobic",dose dependent phototoxicity
same,colony counts with sensitizer alone in dark,[2],not different from those of untreated samples
same,LD50,"[2]; aerobic conditions, light 5 min",10 nM
same,phototoxicity in the presence of light,"[2]; concentration range of 0.1 to 1×10^−7M, aerobic",dose dependent phototoxicity
same,"concentration up to which phototoxicity could be detected, beyond which toxic in the dark",E.Coli,~5 µM
same,sensitivity to Chl-Ser and light,E.Coli,significant resistance
same,effect in dark,B. Subtilis,neither light alone nor Chl-Ser in dark showed any effect
same,concentration of maximal toxicity,[3],> 20 nM
same,EC50,"[3]; 1 h with Chl-Ser, light 10 min, read-out: half maximal dose of sensitizer",~0.01 µM
same,toxicity in the dark,"[3]; tested concentration range, dark",not toxic in the dark
